Like-named read-outs stand apart in the source and are kept apart here.
Tests used:
[1] = tested on: A/PR/8/34 influenza virus; assay: microbe, parasite or virus in culture; assay type: cell-based
[2] = tested on: influenza A virus (A/PR/8/34); assay: microbe, parasite or virus in culture; assay type: cell-based
[3] = bDNA assay, A/PR/8/34 influenza virus replication in MDCK cells, class symbols, read-out: EC50 (mean all)
[4] = CPE assay, A/PR/8/34 infected MDCK cells, class symbols, read-out: IC50 (mean all)
[5] = Influenza A virus, PR/8, MDCK, bDNA assay, A/PR/8/34 influenza virus replication in MDCK cells, class symbols, read-out: EC50 (mean all)
[6] = Influenza A virus, PR/8, MDCK, CPE assay, A/PR/8/34 infected MDCK cells, class symbols, read-out: IC50 (mean all)
[7] = mean all, bDNA viral RNA in MDCK cells infected with A/PR/8/34, read-out: EC50
[8] = mean all, MDCK cells infected with A/PR/8/34, cell protection (CPE), read-out: IC50
[9] = Influenza A virus, PR/8, MDCK, mean all, bDNA viral RNA in MDCK cells infected with A/PR/8/34, read-out: EC50
[10] = Influenza A virus, PR/8, MDCK, mean all, MDCK cells infected with A/PR/8/34, cell protection (CPE), read-out: IC50
[11] = Influenza A virus, PR/8, mean all, A/PR/8/34 influenza virus replication, bDNA, read-out: EC50
[12] = Influenza A virus, PR/8, MDCK, mean all, A/PR/8/34 infected MDCK cells, cell protection (CPE), read-out: IC50
[13] = mean all, A/PR/8/34 influenza virus replication, bDNA, read-out: EC50

Compound | EC50 [1, 7] [µM] | IC50 [2, 8] [µM] | further results
N#Cc1cnc2[nH]cc(-c3ncc(F)c(NC4CCCN(CC(N)=O)C4)n3)c2c1 (stereo not drawn) [Compound 661] | – | – | EC50 [1, 3]: < 5 µM; IC50 [2, 4]: < 5 µM
Fc1cnc(-c2c[nH]c3ncc(Cl)cc23)nc1NC1CCCN(CC2CCCCO2)C1 (stereo not drawn) [Compound 663] | – | – | EC50 [1, 3]: < 5 µM; IC50 [2, 4]: < 5 µM
N#CCN1CCC[C@H](Nc2nc(-c3c[nH]c4ncc(Cl)cc34)ncc2F)C1 [Compound 669] | – | – | EC50 [1, 5]: < 5 µM; IC50 [2, 6]: < 5 µM
CCOC(=O)C1=CC(Nc2nc(-c3c[nH]c4ncc(Cl)cc34)ncc2F)[C@@H](NC(C)=O)[C@H](OC(CC)CC)C1 (stereo partly drawn) [Compound 670] | – | – | EC50 [1, 5]: > 3.3 µM; IC50 [2, 6]: > 10 µM
CCC(CC)O[C@@H]1CC(C(=O)O)=CC(Nc2nc(-c3c[nH]c4ncc(Cl)cc34)ncc2F)[C@H]1NC(C)=O (stereo partly drawn) [Compound 671] | – | – | EC50 [1, 5]: > 3.3 µM; IC50 [2, 6]: > 10 µM
CC(C)(O)c1nc(-c2c[nH]c3ncc(Cl)cc23)nc(NC2CCCCC2C(=O)O)c1F (stereo not drawn) [Compound 673] | < 5 | < 5 | –
Nc1nc(-c2c[nH]c3ncc(Cl)cc23)nc(NC2CCCCC2C(=O)O)c1F (stereo not drawn) [Compound 674] | < 5 | < 5 | –
COC(=O)c1cnc2[nH]cc(-c3ncc(F)c(NC4CCCN(CC(N)=O)C4)n3)c2c1 (stereo not drawn) [Compound 675] | > 3.3 | > 10 | –
Fc1cnc(-c2c[nH]c3ncc(Cl)cc23)nc1NC1CCCN(CC2CCCOC2)C1 (stereo not drawn) [Compound 676] | < 5 | < 5 | –
CC1(C(=O)O)CCCCC1Nc1nc(-c2c[nH]c3ncc(Cl)cc23)ncc1F (stereo not drawn) [Compound 677] | < 5 | < 5 | –
CC1(C(=O)O)CCCCC1Nc1nc(-c2c[nH]c3ncc(F)cc23)ncc1F (stereo not drawn) [Compound 678] | < 5 | < 5 | –
CC(C)(O)C(=O)NC1CCCC(Nc2nc(-c3c[nH]c4ncc(Cl)cc34)ncc2F)C1 (stereo not drawn) [Compound 681] | < 5 | < 5 | –
CC1(C(=O)NC2CCCC(Nc3nc(-c4c[nH]c5ncc(Cl)cc45)ncc3F)C2)CCCO1 (stereo not drawn) [Compound 682] | < 5 | < 5 | –
CCC(=O)NC1CCCC(Nc2nc(-c3c[nH]c4ncc(Cl)cc34)ncc2F)C1 (stereo not drawn) [Compound 683] | < 5 | < 5 | –
O=C(NC1CCCC(Nc2nc(-c3c[nH]c4ncc(Cl)cc34)ncc2F)C1)C1CC1 (stereo not drawn) [Compound 684] | < 5 | < 5 | –
CC(C)C(=O)NC1CCCC(Nc2nc(-c3c[nH]c4ncc(Cl)cc34)ncc2F)C1 (stereo not drawn) [Compound 685] | < 5 | < 5 | –
O=C(O)C1CCCCC1Nc1nc(-c2c[nH]c3ncc(Cl)cc23)nc(C(O)CO)c1F (stereo not drawn) [Compound 687] | > 3.3 | < 5 | –
COC(=O)NC1CCCC(Nc2nc(-c3c[nH]c4ncc(Cl)cc34)nc(C(C)(C)C)c2F)C1 (stereo not drawn) [Compound 688] | < 5 | < 5 | –
COP(=O)(CN1CCC[C@H](Nc2nc(-c3c[nH]c4ncc(Cl)cc34)ncc2F)C1)OC [Compound 690] | – | – | EC50 ([1]; Influenza A virus, PR/8, MDCK): < 5 µM; IC50 ([2]; Influenza A virus, PR/8, MDCK, read-out: IC50): < 5 µM
CC(C)(C)c1nc(-c2c[nH]c3ncc(Cl)cc23)nc(NC2CCCCC2(C)C(=O)O)c1F (stereo not drawn) [Compound 691] | < 5 | < 5 | –
O=C(O)C1CCCC(Nc2nc(-c3c[nH]c4ncc(Cl)cc34)ncc2F)C1 (stereo not drawn) [Compound 696] | < 5 | < 5 | –
CC(C)OC(=O)NC1CCCC(Nc2nc(-c3c[nH]c4ncc(Cl)cc34)ncc2F)C1 (stereo not drawn) [Compound 697] | < 5 | < 5 | –
CCCOC(=O)NC1CCCC(Nc2nc(-c3c[nH]c4ncc(Cl)cc34)ncc2F)C1 (stereo not drawn) [Compound 698] | < 5 | < 5 | –
CC(C)COC(=O)NC1CCCC(Nc2nc(-c3c[nH]c4ncc(Cl)cc34)ncc2F)C1 (stereo not drawn) [Compound 699] | < 5 | < 5 | –
CCOC(=O)NC1CCCC(Nc2nc(-c3c[nH]c4ncc(Cl)cc34)ncc2F)C1 (stereo not drawn) [Compound 700] | < 5 | < 5 | –
CC#CCOC(=O)NC1CCCC(Nc2nc(-c3c[nH]c4ncc(Cl)cc34)ncc2F)C1 (stereo not drawn) [Compound 701] | < 5 | < 5 | –
C#CCOC(=O)NC1CCCC(Nc2nc(-c3c[nH]c4ncc(Cl)cc34)ncc2F)C1 (stereo not drawn) [Compound 702] | < 5 | < 5 | –

Compound | EC50 [1, 7] [µM] | IC50 [2, 8] [µM] | further results
COCC(=O)NC1CCCC(Nc2nc(-c3c[nH]c4ncc(F)cc34)ncc2F)C1 (stereo not drawn) [Compound 703] | < 5 | < 5 | –
O=C(NC1CCCC(Nc2nc(-c3c[nH]c4ncc(F)cc34)ncc2F)C1)C1CCCCO1 (stereo not drawn) [Compound 704] | < 5 | < 5 | –
COC(=O)NC1CCCC(Nc2nc(-c3c[nH]c4ncc(F)cc34)ncc2F)C1 (stereo not drawn) [Compound 705] | < 5 | < 5 | –
COCC(=O)NC1CCCC(Nc2nc(-c3c[nH]c4ncc(Cl)cc34)nc(C(C)(C)O)c2F)C1 (stereo not drawn) [Compound 715] | < 5 | < 5 | –
COC(=O)NC1CCCC(Nc2nc(-c3c[nH]c4ncc(Cl)cc34)nc(C(C)(C)O)c2F)C1 (stereo not drawn) [Compound 716] | < 5 | < 5 | –
OCC(O)C[C@@]1(O)CCCC(Nc2nc(-c3c[nH]c4ncc(Cl)cc34)ncc2F)C1 (stereo partly drawn) [Compound 718] | – | – | EC50 [1, 9]: < 5 µM; IC50 [2, 10]: < 5 µM
O=C(NCC1CC1)C1CCCC(Nc2nc(-c3c[nH]c4ncc(Cl)cc34)ncc2F)C1 (stereo not drawn) [Compound 719] | < 5 | < 5 | –
COC1CN(C(=O)C2CCCC(Nc3nc(-c4c[nH]c5ncc(Cl)cc45)ncc3F)C2)C1 (stereo not drawn) [Compound 720] | < 5 | < 5 | –
CCOC(=O)C(=O)N(C(=O)OC(C)(C)C)C1CC2CC(C(=O)OC)C1C2 (stereo not drawn) [Compound 721] | < 5 | < 5 | –
CC(C)(C)C(=O)NC1CCCC(Nc2nc(-c3c[nH]c4ncc(Cl)cc34)ncc2F)C1 (stereo not drawn) [Compound 723] | < 5 | < 5 | –
N#CCC(=O)NC1CCCC(Nc2nc(-c3c[nH]c4ncc(Cl)cc34)ncc2F)C1 (stereo not drawn) [Compound 724] | < 5 | < 5 | –
CN(C)CC(=O)NC1CCCC(Nc2nc(-c3c[nH]c4ncc(Cl)cc34)ncc2F)C1 (stereo not drawn) [Compound 725] | < 5 | < 5 | –
O=C(NC1CCCC(Nc2nc(-c3c[nH]c4ncc(Cl)cc34)ncc2F)C1)C1CCC1 (stereo not drawn) [Compound 726] | < 5 | < 5 | –
CC(C)(C)CC(=O)NC1CCCC(Nc2nc(-c3c[nH]c4ncc(Cl)cc34)ncc2F)C1 (stereo not drawn) [Compound 728] | < 5 | < 5 | –
O=C(CN1CCCCC1)NC1CCCC(Nc2nc(-c3c[nH]c4ncc(Cl)cc34)ncc2F)C1 (stereo not drawn) [Compound 729] | < 5 | < 5 | –
O=C(CN1CCOCC1)NC1CCCC(Nc2nc(-c3c[nH]c4ncc(Cl)cc34)ncc2F)C1 (stereo not drawn) [Compound 730] | < 5 | < 5 | –
O=C(O)C1CCC(Nc2nc(-c3c[nH]c4ncc(Cl)cc34)ncc2F)CC1 (stereo not drawn) [Compound 731] | > 3.3 | > 10 | –
CNC(=O)C[C@]1(O)CCCC(Nc2nc(-c3c[nH]c4ncc(Cl)cc34)ncc2F)C1 (stereo partly drawn) [Compound 751] | – | – | EC50 [1, 9]: < 5 µM; IC50 [2, 10]: < 5 µM
CCNC(=O)[C@]1(O)CCC[C@H](Nc2nc(-c3c[nH]c4ncc(Cl)cc34)ncc2F)C1 [Compound 779, (1S,3S)-3-[[2-(5-chloro-1H-pyrrolo[2,3-b]pyridin-3-yl)-5-fluoro-pyrimidin-4-yl]amino]-N-ethyl-1-hydroxy-cyclohexanecarboxamide] | – | – | EC50 [1, 11]: < 5 µM; IC50 [2, 12]: < 5 µM
COCCNC(=O)[C@@H]1CCC[C@H](Nc2nc(-c3c[nH]c4ncc(Cl)cc34)ncc2F)C1 [Compound 789] | – | – | EC50 [1, 13]: < 5 µM; IC50 ([2]; read-out: IC50): < 5 µM
O=c1[nH]c(=O)n([C@@H]2CCC[C@H](Nc3nc(-c4c[nH]c5ncc(Cl)cc45)ncc3F)C2)o1 [Compound 796] | – | – | EC50 [1, 13]: < 5 µM; IC50 ([2]; read-out: IC50): < 5 µM
O=c1[nH]c(=O)n([C@H]2CCC[C@H](Nc3nc(-c4c[nH]c5ncc(Cl)cc45)ncc3F)C2)o1 [Compound 798] | – | – | EC50 [1, 13]: < 5 µM; IC50 ([2]; read-out: IC50): < 5 µM
CCNC(=O)C1CCCC(Nc2nc(-c3c[nH]c4ncc(Cl)cc34)ncc2F)C1O (stereo not drawn) [Compound 815, 3-[[2-(5-chloro-1H-pyrrolo[2,3-b]pyridin-3-yl)-5-fluoro-pyrimidin-4-yl]amino]-N-ethyl-2-hydroxy-cyclohexanecarboxamide] | – | – | EC50 [1, 11]: < 5 µM; IC50 [2, 12]: < 5 µM
C[C@@]1(C(=O)O)CCCC(Nc2nc(-c3c[nH]c4ncc(Cl)cc34)ncc2F)C1 (stereo partly drawn) [Compound 826] | – | – | EC50 [1, 11]: < 5 µM; IC50 [2, 12]: < 5 µM
CO[C@@H]1CCC[C@H](Nc2nc(-c3c[nH]c4ncc(Cl)cc34)ncc2F)[C@H]1O [Compound 831, (1R,2S,6R)-2-(2-(5-chloro-1H-pyrrolo[2,3-b]pyridin-3-yl)-5-fluoropyrimidin-4-ylamino)-6-methoxycyclohexanol] | – | – | EC50 [1, 11]: < 5 µM; IC50 [2, 12]: < 5 µM
Fc1cnc(-c2c[nH]c3ncc(Cl)cc23)nc1N[C@H]1CCC[C@@H](c2nnn[nH]2)C1 [Compound 855, N-((1S,3R)-3-(1H-tetrazol-5-yl)cyclohexyl)-2-(5-chloro-1H-pyrrolo[2,3-b]pyridin-3-yl)-5-fluoropyrimidin-4-amine] | – | – | EC50 [1, 11]: < 5 µM; IC50 [2, 12]: < 5 µM
CC(=O)NC[C@]1(O)CCC[C@H](Nc2nc(-c3c[nH]c4ncc(Cl)cc34)ncc2F)C1 [Compound 857] | – | – | EC50 [1, 11]: < 5 µM; IC50 [2, 12]: < 5 µM
